Drawing on patent US20240150334A1, “HSD17B13 INHIBITORS AND/OR DEGRADERS” (Pfizer Inc., priority 2022, published 2024), this text covers IC50 for 20 compounds.

One assay has as its target HSD17B13 enzyme (Homo sapiens (Human), UniProt Q7Z5P4). Put plainly: hHSD17B13 IC50 Assay (FAC beta-estradiol), purified protein enzyme activity assay with NAD(P)H-Glo luciferase readout. Particulars: geometric mean, 12 μM FAC beta-estradiol, 500 μM NAD+, read-out: hHSD17B13_IC50 GMean IC50. The class given is biochemical. On the procedure:
The following protocols may of course be varied by those skilled in the art. hHSD17B13 IC50 Assay (FAC beta-estradiol)
HSD17B13 enzyme inhibition potency of test compounds was determined using a purified protein biochemical enzyme activity assay, using NAD(P)H-Glo luciferase readout (Promega). HSD17B13 enzyme uses the oxidized form of nicotinamide adenine dinucleotide (NAD+) as a cofactor during metabolism of Beta-Estradiol (substrate) to […], while converting NAD+ to the reduced form (NADH). The Promega NAD(P)H-Glo™ assay is a homogeneous bioluminescent assay that generates a light signal from biochemical reactions that contain NADH (or nicotinamide adenine dinucleotide phosphate, NADPH). In the presence of NADH (or NADPH), the enzyme Reductase reduces a proluciferin reductase substrate to form luciferin. Luciferin then is quantified using Ultra-Glo™ Recombinant Luciferase (rLuciferase), and the light signal produced is proportional to the amount of NAD(P)H in the sample. […] The reaction was initiated by the addition of 2 μL/well purified HSD17B13 protein (30 nM FAC in assay buffer). Compound, substrate mix and HSD17B13 protein was incubated in the dark at room temperature for 2 hours before the addition of 3 μL/well NAD(P)H-Glo detection reagent, prepared from luciferase detection reagent and reductase/reductase substrate, as per manufacturer's instructions (Promega, G9061). Detection reagent was incubated in the dark for 1 hour at room temperature before plates were read on the Envision plate reader (Perkin Elmer) using a luminescent protocol. Data expressed as relative luminescent units (RLUs) were then normalized to control wells using Activity Base (IDBS). Zero percent effect (ZPE) was defined as RLUs generated from uninhibited HSD17B13 protein (vehicle control).

In a further assay the target is wild type human HSD17B13 (Homo sapiens (Human), UniProt Q7Z5P4). Put plainly: HEK_Beta-Est LCMS_IC50_Tekcel, whole-cell HEK-HSD17B13 inhibition assay, estrone production by LCMS. The class given is cell-based. Particulars: geometric mean, HEK cells stably expressing wild type human HSD17B13, 25 μM FAC beta-estradiol, read-out: HEK_Beta-Est LCMS_IC50—Tekcel GMean IC50. The gist of the method:
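HEK cells expressing wild-type human HSD17B13 were preincubated with compound for 1 hour at 37° C, then the beta-estradiol/NAD+ reaction ran for 2 hours at 37° C. Estrone formed was quantified by LCMS as product area ratio and normalized to uninhibited vehicle-control wells.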

Each structure is given as a SMILES string. Structures can show the parent of a compound that is named as a salt.

Sequence of wild type human HSD17B13 (Q7Z5P4 20-300): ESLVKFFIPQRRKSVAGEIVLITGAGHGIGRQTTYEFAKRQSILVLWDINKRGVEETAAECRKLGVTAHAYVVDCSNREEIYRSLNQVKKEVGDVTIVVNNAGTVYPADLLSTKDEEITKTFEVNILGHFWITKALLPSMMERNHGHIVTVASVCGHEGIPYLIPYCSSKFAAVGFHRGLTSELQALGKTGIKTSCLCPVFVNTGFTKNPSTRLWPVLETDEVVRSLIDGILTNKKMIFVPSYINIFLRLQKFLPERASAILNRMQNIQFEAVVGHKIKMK
Sequence of HSD17B13 enzyme (Q7Z5P4 20-300): as above

By IC50 is commonly meant the concentration that inhibits the measured activity by half. Turning to `O=C(NC[C@H]1CC[C@H](c2nc(-c3cnc(C(F)(F)F)cn3)no2)CC1)c1cc(F)c(O)c(F)c1` [Example 139, 3,5-difluoro-4-hydroxy-N-{[(1r,4r)-4-{3-[5-(trifluoromethyl)pyrazin-2-yl]-1,2,4-oxadiazol-5-yl}cyclohexyl]methyl} benzamide], the IC50 at HSD17B13 enzyme stood at 22 nM; on wild type human HSD17B13, 410 nM.

On to `O=C(NC[C@]12CC[C@](c3nc(-c4ccc(C(F)F)nc4)no3)(CC1)CC2)c1cc(F)c(O)c(F)c1` [Example 142, N-[(4-{3-[6-(difluoromethyl)pyridin-3-yl]-1,2,4-oxadiazol-5-yl}bicyclo[2.2.2]octan-1-yl)methyl]-3,5-difluoro-4-hydroxybenzamide], for which the values for the IC50 at HSD17B13 enzyme and on wild type human HSD17B13 were 10 nM and 160 nM, respectively.

For the compound `O=C(NC[C@H]1CC[C@H](n2cc3ccc(-c4ccnnc4)cc3n2)CC1)c1cc(F)c(O)c(F)c1` [Example 71, 3,5-difluoro-4-hydroxy-N-({(1r,4r)-4-[6-(pyridazin-4-yl)-2H-indazol-2-yl]cyclohexyl}methyl)benzamide], the IC50 at HSD17B13 enzyme amounted to 9.6 nM; at wild type human HSD17B13, 430 nM.

On to `N#Cc1ccc(-c2ccc3cn([C@H]4CC[C@H](CNC(=O)c5cc(F)c(O)c(F)c5)CC4)nc3c2)cc1` [Example 70, N-({(1r,4r)-4-[6-(4-cyanophenyl)-2H-indazol-2-yl]cyclohexyl}methyl)-3,5-difluoro-4-hydroxybenzamide], for which the IC50 at HSD17B13 enzyme was determined as 3.8 nM; at wild type human HSD17B13 it was 190 nM.

For the compound `O=C(NC[C@H]1CC[C@H](n2cc3ccc(-c4ncc(CO)cn4)cc3n2)CC1)c1cc(F)c(O)c(F)c1` [Example 58, 3,5-difluoro-4-hydroxy-N-{[(1r,4r)-4-{6-[5-(hydroxymethyl)pyrimidin-2-yl]-2H-indazol-2-yl}cyclohexyl]methyl} benzamide], the IC50 was determined as 25 nM on HSD17B13 enzyme and 280 nM at wild type human HSD17B13.

Consider `Cn1nc(-c2noc([C@]34CC[C@](CNC(=O)c5cc(F)c(O)c(F)c5)(CC3)CC4)n2)ccc1=O` [Example 146, 3,5-difluoro-4-hydroxy-N-({4-[3-(1-methyl-6-oxo-1,6-dihydro-pyridazin-3-yl)-1,2,4-oxadiazol-5-yl]bicyclo[2.2.2]octan-1-yl}methyl) benzamide], for which the half-maximal inhibitory concentration (IC50) at HSD17B13 enzyme was determined as 5.6 nM; at wild type human HSD17B13, 290 nM.

As for `O=C(NC[C@H]1CC[C@H](c2noc(-c3ccc(C(F)(F)F)cn3)n2)CC1)c1cc(F)c(O)c(F)c1` [Example 13, 3,5-Difluoro-4-hydroxy-N-{[(1r,4r)-4-{5-[5-(trifluoromethyl)pyridin-2-yl]-1,2,4-oxadiazol-3-yl}cyclohexyl]methyl}benzamide], the values for the half-maximal inhibitory concentration (IC50) at HSD17B13 enzyme and at wild type human HSD17B13 were 17 nM and 470 nM, respectively.

As for `O=C(NC[C@H]1CC[C@H](n2cc3ccc(-c4ccccc4)cc3n2)CC1)c1cc(F)c(O)c(F)c1` [Example 68, 3,5-difluoro-4-hydroxy-N-{[(1r,4r)-4-(6-phenyl-2H-indazol-2-yl)cyclohexyl]methyl} benzamide], the IC50 came out at 7.8 nM at HSD17B13 enzyme and 270 nM on wild type human HSD17B13.

`O=C(NC[C@H]1CC[C@H](n2cc3ccc(Cl)cc3n2)CC1)c1cc(F)c(O)cc1F` [Example 144, N-{[(1r,4r)-4-(6-chloro-2H-indazol-2-yl)cyclohexyl]methyl}-2,5-difluoro-4-hydroxybenzamide, trifluoroacetate salt]: the IC50 is 14 nM at HSD17B13 enzyme and 440 nM at wild type human HSD17B13.

As to `O=C(NC[C@H]1CC[C@H](n2cc3cc(C(F)(F)F)ccc3n2)CC1)c1cc(F)c(O)c(F)c1` [Example 181, 3,5-difluoro-4-hydroxy-N-({(1r,4r)-4-[5-(trifluoromethyl)-2H-indazol-2-yl]cyclohexyl}methyl) benzamide], the values for the 50% inhibitory concentration (IC50) on HSD17B13 enzyme and at wild type human HSD17B13 were 16 nM and 230 nM, respectively.

For `Cc1ccc(-c2ccc3cn([C@H]4CC[C@H](CNC(=O)c5cc(F)c(O)c(F)c5)CC4)nc3c2)nc1` [Example 57, 3,5-difluoro-4-hydroxy-N-({(1r,4r)-4-[6-(5-methylpyridin-2-yl)-2H-indazol-2-yl]cyclohexyl}methyl) benzamide], the figures for the half-maximal inhibitory concentration (IC50) at HSD17B13 enzyme and at wild type human HSD17B13 were 26 nM and 310 nM, respectively.

Regarding `COc1cnc(-c2noc([C@H]3CC[C@H](CNC(=O)c4cc(F)c(O)c(F)c4)CC3)n2)cn1` [Example 127, 3,5-difluoro-4-hydroxy-N-({(1r,4r)-4-[3-(5-methoxy-pyrazin-2-yl)-1,2,4-oxadiazol-5-yl]cyclohexyl}methyl) benzamide], the half-inhibitory concentration (IC50) amounted to 13 nM on HSD17B13 enzyme and 350 nM on wild type human HSD17B13.

For the compound `Cn1cc(-c2ccc3cn([C@H]4CC[C@H](CNC(=O)c5cc(F)c(O)c(F)c5)CC4)nc3c2)c(C(F)F)n1` [Example 34, N-{[(1r,4r)-4-{6-[3-(difluoromethyl)-1-methyl-1H-pyrazol-4-yl]-2H-indazol-2-yl}cyclohexyl]methyl}-3,5-difluoro-4-hydroxybenzamide], the IC50 on HSD17B13 enzyme was determined as 4.3 nM; on wild type human HSD17B13, 310 nM.

For the compound `O=C(NC[C@H]1CC[C@H](n2cc3ccc(Cl)cc3n2)CC1)c1cc(F)c(O)c(F)c1` [Example 135, N-{[(1r,4r)-4-(6-chloro-2H-indazol-2-yl)cyclohexyl]methyl}-3,5-difluoro-4-hydroxybenzamide, ammonium salt], the half-maximal inhibitory concentration (IC50) on HSD17B13 enzyme was determined as 21 nM; at wild type human HSD17B13, 250 nM.

With `COc1cnc(-c2noc([C@]34CC[C@](CNC(=O)c5cc(F)c(O)c(F)c5)(CC3)CC4)n2)cn1` [Example 152, 3,5-difluoro-4-hydroxy-N-({4-[3-(5-methoxypyrazin-2-yl)-1,2,4-oxadiazol-5-yl]bicyclo[2.2.2]octan-1-yl}methyl)benzamide], the half-maximal inhibitory concentration (IC50) on HSD17B13 enzyme is 10 nM; on wild type human HSD17B13, 140 nM.

`O=C(NC[C@H]1CC[C@H](n2cc3ccc(-c4ncccn4)cc3n2)CC1)c1cc(F)c(O)c(F)c1F` [Example 27, 2,3,5-trifluoro-4-hydroxy-N-({(1r,4r)-4-[6-(pyrimidin-2-yl)-2H-indazol-2-yl]cyclohexyl}methyl) benzamide]: the IC50 on HSD17B13 enzyme was found to be 12 nM; at wild type human HSD17B13 it was 180 nM.

As to `O=C(NC[C@]12CC[C@](n3cc4cc(C(F)(F)F)ccc4n3)(CC1)CC2)c1cc(F)c(O)c(F)c1F` [Example 193, 2,3,5-trifluoro-4-hydroxy-N-({4-[5-(trifluoromethyl)-2H-indazol-2-yl]bicyclo [2.2.2]octan-1-yl}methyl)benzamide], the IC50 on HSD17B13 enzyme was 22 nM; on wild type human HSD17B13, 440 nM.

`Cc1c(-c2ccc3cn([C@H]4CC[C@H](CNC(=O)c5cc(F)c(O)c(F)c5)CC4)nc3c2)cnn1C` [Example 39, N-({(1r,4r)-4-[6-(1,5-dimethyl-1H-pyrazol-4-yl)-2H-indazol-2-yl]cyclohexyl}methyl)-3,5-difluoro-4-hydroxybenzamide]: the IC50 on HSD17B13 enzyme was 5.7 nM; at wild type human HSD17B13 it was 250 nM.

As for `O=C(NC[C@H]1CC[C@H](N2Cc3cc(Cl)ccc3C2=O)CC1)c1cc(F)c(O)cc1F` [Example 186, N-{[(1r,4r)-4-(5-chloro-1-oxo-1,3-dihydro-2H-isoindol-2-yl)cyclohexyl]methyl}-2,5-difluoro-4-hydroxybenzamide], the IC50 was determined as 15 nM on HSD17B13 enzyme and 480 nM at wild type human HSD17B13.

Take `Cc1ccnc(-c2ccc3cn([C@H]4CC[C@H](CNC(=O)c5cc(F)c(O)c(F)c5)CC4)nc3c2)n1` [Example 53, 3,5-difluoro-4-hydroxy-N-({(1r,4r)-4-[6-(4-methylpyrimidin-2-yl)-2H-indazol-2-yl]cyclohexyl}methyl)benzamide]: the IC50 is 4.4 nM at HSD17B13 enzyme and 200 nM on wild type human HSD17B13.
